Values joined by “and” are separate entries in the source; they are usually repeats but may differ in a detail not shown here. Equal values may be shown once. Inconclusive results are not listed.
Tested on: BDF1 mice, colon carcinoma 38 sc, T/C %
Assay: NCI In Vivo Anticancer Drug Screen. Data for tumor model Colon Carcinoma 38 (subcutaneous) in B6D2F1 (BDF1) mice
How it was run: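 T/C readout: treated group (T) measurement over vehicle control group (C) measurement. Endpoint is survival or tumor size in mice bearing a transplanted tumor.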

## CCN(CC)CCOC(=O)Cc1cccc2c(=O)cc(-c3ccccc3)oc12
endpoint: median survival time, dose: 133.0 mg/kg/injection, schedule: Q07DX002 (ip), vehicle: saline, higher = longer survival
  T/C: 110 % of control
endpoint: median survival time, dose: 200.0 mg/kg/injection, schedule: Q07DX002 (ip), vehicle: saline, higher = longer survival
  T/C: 313 % of control
endpoint: median tumor weight (est.), dose: 3.12 mg/kg/injection, schedule: Q07DX002 (iv), vehicle: saline, higher = larger tumour
  T/C: 92 % of control
endpoint: median tumor weight (est.), dose: 6.25 mg/kg/injection, schedule: Q07DX002 (ip), vehicle: saline, higher = larger tumour
  T/C: 74 % of control
endpoint: median tumor weight (est.), dose: 6.25 mg/kg/injection, schedule: Q07DX002 (iv), vehicle: saline, higher = larger tumour
  T/C: 88 % of control
endpoint: median tumor weight (est.), dose: 12.5 mg/kg/injection, schedule: Q07DX002 (iv), vehicle: saline, higher = larger tumour
  T/C: 109 % of control
endpoint: median tumor weight (est.), dose: 25.0 mg/kg/injection, schedule: Q07DX002 (iv), vehicle: saline, higher = larger tumour
  T/C: 46 % of control
endpoint: median tumor weight (est.), dose: 28.0 mg/kg/injection, schedule: Q07DX002 (iv), vehicle: saline, higher = larger tumour
  T/C: 122 % of control
endpoint: median tumor weight (est.), dose: 37.5 mg/kg/injection, schedule: Q07DX002 (iv), vehicle: saline, higher = larger tumour
  T/C: 110 % of control
endpoint: median tumor weight (est.), dose: 50.0 mg/kg/injection, schedule: Q07DX002 (ip), vehicle: Klucel (hydroxypropylcellulose) (HPC), higher = larger tumour
  T/C: 61 % of control
endpoint: median tumor weight (est.), dose: 50.0 mg/kg/injection, schedule: Q07DX002 (ip), vehicle: saline with Tween-80, higher = larger tumour
  T/C: 45 % of control
endpoint: median tumor weight (est.), dose: 50.0 mg/kg/injection, schedule: Q07DX009 (ip), vehicle: saline, higher = larger tumour
  T/C: 84 % of control
endpoint: median tumor weight (est.), dose: 100.0 mg/kg/injection, schedule: Q07DX002 (ip), vehicle: saline with Tween-80, higher = larger tumour
  T/C: 61 % of control
endpoint: median tumor weight (est.), dose: 100.0 mg/kg/injection, schedule: Q07DX009 (ip), vehicle: saline, higher = larger tumour
  T/C: 40 % of control
endpoint: median tumor weight (est.), dose: 112.0 mg/kg/injection, schedule: Q07DX002 (ip), vehicle: saline, higher = larger tumour
  T/C: 105 % of control
endpoint: median tumor weight (est.), dose: 150.0 mg/kg/injection, schedule: Q07DX002 (ip), vehicle: saline, higher = larger tumour
  T/C: 89 % of control

## O=C1C=CC(=O)O1 (tested in a mixture with another compound)
endpoint: median tumor weight (est.), dose: 12.5 mg/kg/injection, schedule: Q07DX002 (ip), vehicle: saline, higher = larger tumour
  T/C: 155 % of control
endpoint: median tumor weight (est.), dose: 25.0 mg/kg/injection, schedule: Q07DX002 (ip), vehicle: saline, higher = larger tumour
  T/C: 106 % of control
endpoint: median tumor weight (est.), dose: 50.0 mg/kg/injection, schedule: Q07DX002 (ip), vehicle: saline, higher = larger tumour
  T/C: 90 % of control
endpoint: median tumor weight (est.), dose: 100.0 mg/kg/injection, schedule: Q07DX002 (ip), vehicle: saline, higher = larger tumour
  T/C: 100 % of control
endpoint: median tumor weight (est.), dose: 200.0 mg/kg/injection, schedule: Q07DX002 (ip), vehicle: saline, higher = larger tumour
  T/C: 86 % of control
endpoint: median tumor weight (est.), dose: 400.0 mg/kg/injection, schedule: Q07DX002 (ip), vehicle: saline, higher = larger tumour
  T/C: 86 % of control

## NC(Cc1ccc(N(CCCl)CCCl)cc1)C(=O)O (configuration not stated)
endpoint: median tumor weight (est.), dose: 1.0 mg/kg/injection, schedule: Q07DX002 (ip), vehicle: Klucel (hydroxypropylcellulose) (HPC), higher = larger tumour
  T/C: 71 % of control
endpoint: median tumor weight (est.), dose: 1.0 mg/kg/injection, schedule: Q07DX002 (ip), vehicle: water, higher = larger tumour
  T/C: 84 % of control
endpoint: median tumor weight (est.), dose: 2.0 mg/kg/injection, schedule: Q07DX002 (ip), vehicle: water, higher = larger tumour
  T/C: 97 % of control
endpoint: median tumor weight (est.), dose: 4.0 mg/kg/injection, schedule: Q07DX002 (ip), vehicle: water, higher = larger tumour
  T/C: 59 % of control
endpoint: median tumor weight (est.), dose: 8.0 mg/kg/injection, schedule: Q07DX002 (ip), vehicle: Klucel (hydroxypropylcellulose) (HPC), higher = larger tumour
  T/C: 47 % of control and 51 % of control and 53 % of control
endpoint: median tumor weight (est.), dose: 8.0 mg/kg/injection, schedule: Q07DX002 (ip), vehicle: water, higher = larger tumour
  T/C: 37 % of control
endpoint: median tumor weight (est.), dose: 16.0 mg/kg/injection, schedule: Q07DX002 (ip), vehicle: Klucel (hydroxypropylcellulose) (HPC), higher = larger tumour
  T/C: 9 % of control and 14 % of control

## O=C(C#Cc1ccccc1)c1ccccc1
endpoint: median tumor weight (est.), dose: 3.12 mg/kg/injection, schedule: Q07DX002 (ip), vehicle: Klucel (hydroxypropylcellulose) (HPC), higher = larger tumour
  T/C: 73 % of control
endpoint: median tumor weight (est.), dose: 3.12 mg/kg/injection, schedule: Q07DX002 (ip), vehicle: water, higher = larger tumour
  T/C: 106 % of control
endpoint: median tumor weight (est.), dose: 6.25 mg/kg/injection, schedule: Q07DX002 (ip), vehicle: water, higher = larger tumour
  T/C: 77 % of control
endpoint: median tumor weight (est.), dose: 12.5 mg/kg/injection, schedule: Q07DX002 (ip), vehicle: Klucel (hydroxypropylcellulose) (HPC), higher = larger tumour
  T/C: 83 % of control
endpoint: median tumor weight (est.), dose: 12.5 mg/kg/injection, schedule: Q07DX002 (ip), vehicle: water, higher = larger tumour
  T/C: 110 % of control
endpoint: median tumor weight (est.), dose: 25.0 mg/kg/injection, schedule: Q07DX002 (ip), vehicle: Klucel (hydroxypropylcellulose) (HPC), higher = larger tumour
  T/C: 101 % of control
endpoint: median tumor weight (est.), dose: 25.0 mg/kg/injection, schedule: Q07DX002 (ip), vehicle: water, higher = larger tumour
  T/C: 117 % of control
endpoint: median tumor weight (est.), dose: 50.0 mg/kg/injection, schedule: Q07DX002 (ip), vehicle: water, higher = larger tumour
  T/C: 54 % of control
